{"source": "patent US12202805B2", "about": "“Process for preparing (5S)-{[2-(4-carboxyphenyl)ethyl] |2-(2-{|3-chloro-4'-(trifluoromethyl)biphenyl-4-yl]methoxy}phenyl)ethyl]aminol-5,6,7,8-tetrahydroquinoline-2-carboxylic acid and its crystalline forms for use as pharmaceutically active compound” (Bayer Aktiengesellschaft, priority 2021, dated 2025)", "tested_on": "thromboxane A2 challenged PAH-minipig", "test": "Haemodynamics in the anesthetized thromboxane challenged minipig, intratracheal dry powder (PAP, BP)", "type": "in vivo, Göttingen Minipigs", "procedure": "Healthy Göttingen Minipigs® Ellegaard (Ellegaard, Denmark) of both sexes and having a weight of 2-6 kg were used. The animals were sedated by i.m. administration of about 25 mg/kg ketamine and about 10 mg/kg azaperone. Anaesthesia was initiated by i.v. administration of about 2 mg/kg ketamine and about 0.3 mg/kg midazolam. Maintenance of anaesthesia was by i.v. administration of about 7.5-30 mg/kg/h ketamine and about 1-4 mg/kg/h midazolam (rate of infusion 1-4 ml/kg/h) and about 150 μg/kg/h pancuronium bromide (for example Pancuronium-Actavis). After intubation, the animals were ventilated by the ventilator at a constant respiratory volume (10-12 ml/kg, 35 breaths/min; Avea®, Viasys Healthcare, USA, or Engström Carestation, GE Healthcare, Freiburg, Germany) such that an end-tidal CO2 concentration of about 5% was achieved. Ventilation was performed with room air, enriched with about 40% oxygen (normoxia). For the measurement of the haemodynamic parameters such as pulmonary arterial pressure (PAP), blood pressure (BP) and heart rate (HR), catheters were inserted into the carotid artery to measure the blood pressure, and a Swan-Ganz® catheter was introduced in a flow-directed manner via the jugular vein into the pulmonary artery. The haemodynamic signals were recorded and evaluated by means of pressure transducers (Combitransducer, B. Braun, Melsungen, Germany)/amplifiers and Ponemah® as data acquisition software.\nAs reference pure Lactose vehicle was applied in the beginning of each experiment.", "note": "Values joined by “and” are separate entries in the source; they are usually repeats but may differ in a detail not shown here. Identical values can stand only once.", "data": [{"smiles": "O.O=C(O)c1ccc(CCN(CCc2ccccc2OCc2ccc(-c3ccc(C(F)(F)F)cc3)cc2Cl)[C@H]2CCCc3nc(C(=O)O)ccc32)cc1.O=C(O)c1ccc(CCN(CCc2ccccc2OCc2ccc(-c3ccc(C(F)(F)F)cc3)cc2Cl)[C@H]2CCCc3nc(C(=O)O)ccc32)cc1", "note": "[example 6a, (5S)—{[2-(4-Carboxyphenyl)ethyl][2-(2-{[3-chloro-4′-(trifluoromethyl)biphenyl-4-yl]methoxy}phenyl)-ethyl]amino}-5,6,7,8-tetrahydroquinoline-2-carboxylic acid semihydrate]", "values": [{"measurement": "systemic blood pressure", "setting": "375 μg/kg i.t., within the last hour of the observation interval", "result": "slightly affected"}, {"measurement": "efficacy with regard to PAP reduction as well as systemic BP reduction", "setting": "micronized hydrates, 1.5 mg/4 kg (=375 μg/kg) i.t.", "result": "comparable efficacy"}, {"measurement": "BP (mean)", "setting": "time 0 min, 375 μg/kg i.t.", "result": "101 mmHg and 85 mmHg"}, {"measurement": "PAP(mean)", "setting": "time 0 min, 375 μg/kg i.t.", "result": "39.6 mmHg and 40.8 mmHg and 38.5 mmHg"}, {"measurement": "BP (mean)", "setting": "time 10 min, 375 μg/kg i.t.", "result": "103 mmHg and 83 mmHg and 79 mmHg"}, {"measurement": "PAP(mean)", "setting": "time 10 min, 375 μg/kg i.t.", "result": "40.2 mmHg and 41.1 mmHg"}, {"measurement": "BP (mean)", "setting": "time 20 min, 375 μg/kg i.t.", "result": "101 mmHg and 83 mmHg and 84 mmHg"}, {"measurement": "PAP(mean)", "setting": "time 20 min, 375 μg/kg i.t.", "result": "40.4 mmHg and 41.3 mmHg"}, {"measurement": "BP (mean)", "setting": "time 30 min, 375 μg/kg i.t.", "result": "100 mmHg and 81 mmHg and 88 mmHg"}, {"measurement": "PAP(mean)", "setting": "time 30 min, 375 μg/kg i.t.", "result": "40.2 mmHg and 41.3 mmHg"}, {"measurement": "BP (mean)", "setting": "time 40 min, 375 μg/kg i.t.", "result": "98 mmHg and 81 mmHg and 90 mmHg"}, {"measurement": "PAP(mean)", "setting": "time 40 min, 375 μg/kg i.t.", "result": "40.4 mmHg and 41.8 mmHg and 41.0 mmHg"}, {"measurement": "BP (mean)", "setting": "time 50 min, 375 μg/kg i.t.", "result": "99 mmHg and 78 mmHg and 89 mmHg"}, {"measurement": "PAP(mean)", "setting": "time 50 min, 375 μg/kg i.t.", "result": "40.7 mmHg and 41.7 mmHg and 40.9 mmHg"}, {"measurement": "BP (mean)", "setting": "time 60 min, 375 μg/kg i.t.", "result": "100 mmHg and 79 mmHg and 86 mmHg"}, {"measurement": "BP, % changes vs. prevalues", "setting": "time 60 min, 375 μg/kg i.t.", "result": "100.6% and 99.7% and 97.2%"}, {"measurement": "PAP(mean)", "setting": "time 60 min, 375 μg/kg i.t.", "result": "41.2 mmHg and 42.0 mmHg and 40.9 mmHg"}, {"measurement": "PAP, % changes vs. prevalues", "setting": "time 60 min, 375 μg/kg i.t.", "result": "100.7% and 99.4% and 99.2%"}, {"measurement": "BP (mean)", "setting": "time 70 min, 375 μg/kg i.t.", "result": "102 mmHg and 78 mmHg and 87 mmHg"}, {"measurement": "BP, % changes vs. prevalues", "setting": "time 70 min, 375 μg/kg i.t.", "result": "102.6% and 98.4%"}, {"measurement": "PAP(mean)", "setting": "time 70 min, 375 μg/kg i.t.", "result": "38.8 mmHg and 40.6 mmHg and 40.1 mmHg"}, {"measurement": "PAP, % changes vs. prevalues", "setting": "time 70 min, 375 μg/kg i.t.", "result": "94.7% and 96.1% and 97.0%"}, {"measurement": "BP (mean)", "setting": "time 80 min, 375 μg/kg i.t.", "result": "102 mmHg and 79 mmHg and 90 mmHg"}, {"measurement": "BP, % changes vs. prevalues", "setting": "time 80 min, 375 μg/kg i.t.", "result": "102.6% and 99.7% and 101.8%"}, {"measurement": "PAP(mean)", "setting": "time 80 min, 375 μg/kg i.t.", "result": "34.1 mmHg and 39.9 mmHg and 37.7 mmHg"}, {"measurement": "PAP, % changes vs. prevalues", "setting": "time 80 min, 375 μg/kg i.t.", "result": "83.4% and 94.5% and 91.2%"}, {"measurement": "BP (mean)", "setting": "time 90 min, 375 μg/kg i.t.", "result": "101 mmHg and 81 mmHg and 92 mmHg"}, {"measurement": "BP, % changes vs. prevalues", "setting": "time 90 min, 375 μg/kg i.t.", "result": "101.6% and 102.2% and 104.0%"}, {"measurement": "PAP(mean)", "setting": "time 90 min, 375 μg/kg i.t.", "result": "30.1 mmHg and 37.7 mmHg and 36.6 mmHg"}, {"measurement": "PAP, % changes vs. prevalues", "setting": "time 90 min, 375 μg/kg i.t.", "result": "73.4% and 89.2% and 88.7%"}, {"measurement": "BP (mean)", "setting": "time 100 min, 375 μg/kg i.t.", "result": "100 mmHg and 80 mmHg and 95 mmHg"}, {"measurement": "BP, % changes vs. prevalues", "setting": "time 100 min, 375 μg/kg i.t.", "result": "100.6% and 101.0% and 107.4%"}, {"measurement": "PAP(mean)", "setting": "time 100 min, 375 μg/kg i.t.", "result": "28.3 mmHg and 35.9 mmHg and 35.0 mmHg"}, {"measurement": "PAP, % changes vs. prevalues", "setting": "time 100 min, 375 μg/kg i.t.", "result": "69.0% and 85.0% and 84.7%"}, {"measurement": "BP (mean)", "setting": "time 110 min, 375 μg/kg i.t.", "result": "99 mmHg and 79 mmHg"}, {"measurement": "BP, % changes vs. prevalues", "setting": "time 110 min, 375 μg/kg i.t.", "result": "99.6% and 99.7% and 111.9%"}, {"measurement": "PAP(mean)", "setting": "time 110 min, 375 μg/kg i.t.", "result": "27.2 mmHg and 34.8 mmHg and 34.0 mmHg"}, {"measurement": "PAP, % changes vs. prevalues", "setting": "time 110 min, 375 μg/kg i.t.", "result": "66.5% and 82.4% and 82.1%"}, {"measurement": "BP (mean)", "setting": "time 120 min, 375 μg/kg i.t.", "result": "99 mmHg and 79 mmHg and 96 mmHg"}, {"measurement": "BP, % changes vs. prevalues", "setting": "time 120 min, 375 μg/kg i.t.", "result": "99.6% and 99.7% and 108.6%"}, {"measurement": "PAP(mean)", "setting": "time 120 min, 375 μg/kg i.t.", "result": "26.4 mmHg and 34.1 mmHg and 32.9 mmHg"}, {"measurement": "PAP, % changes vs. prevalues", "setting": "time 120 min, 375 μg/kg i.t.", "result": "64.4% and 80.8% and 79.7%"}, {"measurement": "BP (mean)", "setting": "time 130 min, 375 μg/kg i.t.", "result": "98 mmHg and 81 mmHg and 97 mmHg"}, {"measurement": "BP, % changes vs. prevalues", "setting": "time 130 min, 375 μg/kg i.t.", "result": "98.6% and 102.2% and 109.7%"}, {"measurement": "PAP(mean)", "setting": "time 130 min, 375 μg/kg i.t.", "result": "25.7 mmHg and 33.7 mmHg and 31.7 mmHg"}, {"measurement": "PAP, % changes vs. prevalues", "setting": "time 130 min, 375 μg/kg i.t.", "result": "62.8% and 79.9% and 76.7%"}, {"measurement": "BP (mean)", "setting": "time 140 min, 375 μg/kg i.t.", "result": "99 mmHg and 82 mmHg and 98 mmHg"}, {"measurement": "BP, % changes vs. prevalues", "setting": "time 140 min, 375 μg/kg i.t.", "result": "99.6% and 103.5% and 110.8%"}, {"measurement": "PAP(mean)", "setting": "time 140 min, 375 μg/kg i.t.", "result": "25.3 mmHg and 33.2 mmHg and 31.3 mmHg"}, {"measurement": "PAP, % changes vs. prevalues", "setting": "time 140 min, 375 μg/kg i.t.", "result": "61.8% and 78.7% and 75.7%"}, {"measurement": "BP (mean)", "setting": "time 150 min, 375 μg/kg i.t.", "result": "97 mmHg and 82 mmHg"}, {"measurement": "BP, % changes vs. prevalues", "setting": "time 150 min, 375 μg/kg i.t.", "result": "97.6% and 103.5% and 109.7%"}, {"measurement": "PAP(mean)", "setting": "time 150 min, 375 μg/kg i.t.", "result": "25.0 mmHg and 32.9 mmHg and 30.7 mmHg"}, {"measurement": "PAP, % changes vs. prevalues", "setting": "time 150 min, 375 μg/kg i.t.", "result": "60.9% and 78.0% and 74.3%"}, {"measurement": "BP (mean)", "setting": "time 160 min, 375 μg/kg i.t.", "result": "96 mmHg and 81 mmHg and 97 mmHg"}, {"measurement": "BP, % changes vs. prevalues", "setting": "time 160 min, 375 μg/kg i.t.", "result": "96.6% and 102.2% and 109.7%"}, {"measurement": "PAP(mean)", "setting": "time 160 min, 375 μg/kg i.t.", "result": "24.5 mmHg and 32.5 mmHg and 30.2 mmHg"}]}]}
